For 11 molecules, TGI results are on record in PubChem BioAssay (NCI).

Assay in all cases: inhibition of tumour cell growth, NCI panel, 48 h
Test [1] relates to 786-0 renal.
Test [2] has as its system HCT-15 colon.
Test [3] has as its system HS 578T breast.
Test [4] concerns MDA-MB-231 breast.
Test [5] deals with MDA-MB-435.
The test system of test [6] is NCI-H226 lung.
Test [7] has as its system NCI-H522 lung.
Test [8] concerns NCI/ADR-RES ovarian.
The test system of test [9] is SF-295 CNS.
Test [10] relates to SNB-75 CNS.
Test [11] deals with UACC-62 melanoma.

The structures appear in SMILES notation.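 In this assay, cells in 96-well plates receive the compound at five concentrations for 48 hours. Endpoints are linearly interpolated between the surrounding concentrations. TGI is the concentration that stops growth completely.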

As to `COc1cc(/C=C/C(=N\NS(=O)(=O)c2ccc(C)cc2)c2sc(NNC(C)=O)nc2C)ccc1O`, the TGI in [1], in test [2], in test [3], in test [4], in test [5] and in test [6] was greater than 100 µM in each case. The TGI in [7], in [8], in [9], in test [10] and in [11] was greater than 100 µM each time.

Turning to `C=C1c2nc3ccccc3n2C=C(c2ccccc2)N1c1ccc([N+](=O)[O-])cc1`, the TGI was determined as 4.13 µM in [1]; 32.1 µM in [2]; 30.3 µM in test [3]; 14.2 µM in [4]; 32.6 µM in [5]; 27.6 µM in [6]. Besides, the TGI in [7] stood at 24.4 µM; in test [8], 44.5 µM; in test [9], 18.5 µM; in test [10], 16.4 µM; in test [11] it was 32.3 µM.

Regarding `O=c1[nH][nH]c(=O)n1Cc1ccccc1Cn1c(=O)[nH][nH]c1=O`, the TGI in [1], in test [2], in test [3], in test [4], in [5] and in test [6] was greater than 100 µM in each case. Also, the TGI in test [7], in test [8], in test [9], in test [10] and in [11] was greater than 100 µM throughout.

For `CCNC(=S)N/N=C/c1cc([N+](=O)[O-])ccc1O`, the TGI in test [1], in [2], in test [3], in test [4], in test [5] and in test [6] was greater than 100 µM each time. Besides, the TGI was 59.3 µM in test [7]; 77.3 µM in test [8]; greater than 100 µM in [9]; greater than 100 µM in test [10]; 93.9 µM in test [11].

For the molecule `COC(=O)c1cc2c(n1S(=O)(=O)c1ccc(C)cc1)C(=O)C(=O)c1[nH]cc(C(=O)OCc3ccccc3)c1-2`, the TGI in test [1] was found to be 1.07 µM; in test [2], 0.256 µM; in test [3], 5.8 µM; in test [4], 0.168 µM; in test [5], 0.0301 µM; in test [6] it was 0.462 µM. Moreover, the TGI in [7] worked out at 0.48 µM; in test [8], 5.26 µM; in [9], 0.259 µM; in test [10] it was 0.3 µM; in test [11], 0.138 µM.

On to `O=C1/C(=C/c2ccc(O)cc2)CC/C1=C\c1ccc(O)cc1`, for which the TGI in [1], in [2], in test [3], in test [4], in test [5] and in [6] was greater than 100 µM throughout. In addition, the TGI in test [7], in test [8], in test [9], in test [10] and in test [11] was greater than 100 µM each time.

For the molecule `CC(=O)O[C@H]1C(=O)[C@]2(C)[C@@H](OC(=O)OCCC(O)CO)C[C@H]3OC[C@@]3(OC(C)=O)[C@H]2[C@H](OC(=O)c2ccccc2)[C@]2(O)C[C@H](OC(=O)[C@H](O)[C@@H](NC(=O)c3ccccc3)c3ccccc3)C(C)=C1C2(C)C` (stereo partly specified), the TGI in [1] is 6.05 µM; in test [2], greater than 100 µM; in test [3] it was 0.479 µM; in test [4] it was 3.7 µM; in test [5], less than 0.01 µM; in [6], 0.576 µM. For the same molecule, the TGI is less than 0.01 µM in test [7]; greater than 100 µM in test [8]; 1.12 µM in test [9]; 0.158 µM in test [10]; 24.8 µM in test [11].

Take `O=[N+]([O-])C(=C1NCCN1)/C(Cl)=C(\Cl)Br`: the TGI was 33.5 µM in test [1]; 7.93 µM in [2]; greater than 100 µM in test [3]; greater than 100 µM in [4]; greater than 63.2 µM in test [5]; greater than 100 µM in [6]. Also, the TGI in test [7] is 44.6 µM; in test [8], greater than 100 µM; in [9], greater than 100 µM; in test [10], greater than 86.3 µM; in [11], greater than 100 µM.

Consider `COc1ccc(C(OCC2OC(n3cc(C)c(=O)[nH]c3=O)CC2n2cc(Cn3cc(I)c(=O)[nH]c3=O)nn2)(c2ccccc2)c2ccccc2)cc1` (stereo unspecified), for which the TGI in test [1], in [2], in [3], in test [4], in test [5] and in [6] was greater than 100 µM in each case. Besides, the TGI in test [7], in test [8], in test [9], in [10] and in test [11] was greater than 100 µM in each case.

Regarding `CN1CCN([C@H]2C[C@H]3[C@@H]4CC=C5C[C@@H](O)CC[C@]5(C)[C@H]4CC[C@]3(C)C2=O)CC1`, the TGI in [1], in [2], in test [3], in test [4], in [5] and in test [6] was greater than 100 µM in each case. Also, the TGI in [7], in test [8], in test [9], in test [10] and in test [11] was greater than 100 µM each time.

Turning to `Oc1cccc2c(Cl)ccnc12`, the TGI in test [1] was greater than 100 µM; in [2], 29.7 µM; in test [3] it was greater than 73.9 µM; in test [4] it was 97.5 µM; in [5], greater than 78.5 µM; in test [6], greater than 100 µM. Also, the TGI in test [7] was 2.44 µM; in test [8], greater than 100 µM; in [9], greater than 100 µM; in test [10], greater than 100 µM; in test [11] it was 8.45 µM.
